Source: patent US8114865B2, “Indazole derivatives as kinase inhibitors for the treatment of cancer” (Nerviano Medical Sciences S.R.L., priority 2006, dated 2012)

biological target: IGF-1R (Homo sapiens, UniProt P08069); assay: Biochemical assay for inhibitors of IGF-1R kinase activity (trans-phosphorylation, Dowex); set-up: amino acid residues 960-1367 of precursor protein; made in house; host or cells: H5 insect cells (baculovirus; virus generated in Sf21); conditions: read-out: IGF1R IC50
Method: Human cDNA was used as template for amplification by polymerase chain reaction (PCR) of the predicted cytoplasmic portion of IGF-1R (amino acid residues 960-1367 of precursor protein; see NCBI Entrez Protein Accession #P08069) which includes the entire kinase domain. PCR was conducted using the forward primer sequence 5′-[…]-3′ [SEQ ID NO: 1] and the reverse primer sequence 5′-[…]-3′[SEQ ID NO: 2].
In order to facilitate subsequent cloning steps, both primers comprise a BamHI restriction endonuclease site sequence. This PCR product was cloned in frame using BamHI sticky ends into a transfer vector for the baculovirus expression system, pVL1392 (Pharmingen), previously modified by insertion into the pVL1392 multiple cloning site of sequences encoding Glutathione S-transferase (GST) fusion protein, PreScission protease cleavage site and partial MCS cassette derived from the pGex-6P plasmid (Amersham BioSciences). Insertion of the IGF-1R PCR product described above into the pGex-6P derived BamHI site of the modified pVL1392 vector results in an open reading frame corresponding to the pGEX-6P GST protein and PreScission peptide fused with the human IGF-1R cytoplasmic domain. In order to obtain fusion protein, Sf21 insect cells (Invitrogen) are cotransfected with 2 microg of purified plasmid and 1 microg of virus DNA (BaculoGold™ Transfection Kit, Pharmingen), as described in the Baculovirus Instruction manual (Pharmingen). A first amplification of the virus is performed using 600 microL of cotransfected virus on 6×10^6 Sf21 in a monolayer culture, in 12 mL of medium (TNM-FH Grace's medium—Pharmingen). After 3 days the medium is collected, centrifuged and transferred to a sterile tube. A second amplification is prepared with the same method using 2 mL on 3×10^7 cells, diluted in 40 mL of medium. For the third amplification of virus, 1 mL of supernatant from the second round are used per 3×10^7 cells diluted in 40 mL of medium. […]
The inhibitory activity of putative kinase inhibitors and the potency of selected compounds were determined using a trans-phosphorylation assay. […]

Sequence of IGF-1R (P08069 960-1367): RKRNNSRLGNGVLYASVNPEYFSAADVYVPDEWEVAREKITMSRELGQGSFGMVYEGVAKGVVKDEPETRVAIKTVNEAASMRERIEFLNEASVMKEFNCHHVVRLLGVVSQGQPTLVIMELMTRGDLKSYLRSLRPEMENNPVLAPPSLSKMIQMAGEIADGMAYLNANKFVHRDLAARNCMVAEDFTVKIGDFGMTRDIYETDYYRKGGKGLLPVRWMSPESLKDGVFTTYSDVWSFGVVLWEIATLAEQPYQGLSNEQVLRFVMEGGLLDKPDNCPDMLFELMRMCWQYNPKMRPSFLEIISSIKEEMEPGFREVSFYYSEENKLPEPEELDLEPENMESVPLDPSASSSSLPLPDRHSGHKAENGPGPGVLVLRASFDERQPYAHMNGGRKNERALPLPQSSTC

Point of comparison: `CN1CCN(c2ccc(C(=O)Nc3n[nH]c4ccc(S(=O)(=O)c5ccccc5)cc34)c(NC(=O)c3ccc[nH]3)c2)CC1` [Compound 33, 1H-pyrrole-2-carboxylic acid [2-(5-benzenesulfonyl-1H-indazol-3-ylcarbamoyl)-5-(4-methyl-piperazin-1-yl)-phenyl]amide], IC50 0.036 µM. Against it:
- CN1CCN(c2ccc(C(=O)Nc3n[nH]c4ccc(S(=O)(=O)c5ccccc5)cc34)cc2)CC1 [Compound 1, N-(5-Benzenesulfonyl-1H-indazol-3-yl)-4-(4-methyl-piperazin-1-yl)-benzamide] — 24-fold higher, 0.85 µM
- CN1CCN(c2ccc(C(=O)Nc3n[nH]c4ccc(S(=O)(=O)c5ccccc5)cc34)c(NC(=O)[C@@H]3CCCO3)c2)CC1 [Compound 36, (S)-Tetrahydro-furan-2-carboxylic acid [2-(5-benzenesulfonyl-1H-indazol-3-ylcarbamoyl)-5-(4-methyl-piperazin-1-yl)-phenyl]-amide] — 6.4-fold higher, 0.23 µM
